In patent US10815247B2, “Functionalized NANOLUC inhibitors” (PROMEGA CORPORATION, priority 2016, dated 2020):
“Also recorded” adds a separate entry of the source. Where two headings read alike, the source gives them in different places.

Assays:
NanoLuc [1] = target: T1, NanoLuc (Oplophorus gracilirostris, UniProt Q9GV45, A31E/A60N/A81I/F95D/I117V/K70R/L54V/L99Q/M102K/N193R/P142E/Q151K/Q38R/Q45L/V71I/Y165I); details: inhibitor diluted to 3 uM, NanoLuc 0.4 ng/ml, 100 uM furimazine, read at two minute intervals
T1 sequence (Q9GV45 28-196 with tags or gaps with the stated changes limits assumed): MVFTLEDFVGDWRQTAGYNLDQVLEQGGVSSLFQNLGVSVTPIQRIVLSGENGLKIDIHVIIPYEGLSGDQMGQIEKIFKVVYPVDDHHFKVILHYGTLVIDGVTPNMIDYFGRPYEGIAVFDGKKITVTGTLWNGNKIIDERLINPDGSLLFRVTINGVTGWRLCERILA
Procedure: Inhibitors were diluted to 3 uM into OptiMEM+0.1% FBS. NanoLuc was diluted to 0.4 ng/ml into NanoGlo® buffer+100 uM furimazine. 50 ul of each inhibitor was added to 50 ul of the NanoLuc/furimazine/NanoGlo® solution. Samples were immediately placed in a GloMax Multi+ set to read in kinetic mode at two minute intervals.
Inhibitors were diluted to 3 uM into OptiMEM+0.1% FBS. NanoLuc was diluted to 0.4 ng/ml into NanoGlo® buffer+100 uM furimazine. 50 ul of each inhibitor was added to 50 ul of the NanoLuc/furimazine/NanoGlo® solution. Samples were immediately placed in a GloMax® Multi+ set to read in kinetic mode at two minute intervals.

NanoLuc [2] = target: T1, NanoLuc; assay: Inhibitor IC50 determination; type: biochemical
Procedure: The following example provides the IC50 values for the compounds disclosed herein. NANOLUC® enzyme was diluted to 0.4 ng/ml in CO2 independent media+10% FBS to make the detection reagent. A 3× dilution series of each inhibitor was then made in the detection reagent. A “no inhibitor” control was also made for each sample. 50 ul of each inhibitor dilution was mixed with 50 ul of NanoGlo® buffer containing 20 μM furimazine (final furimazine concentration is 10 μM, which is at Km.), and luminescence was measured. Each sample was normalized to the “no inhibitor” control. The IC50 values were then determined using GraphPad Prism (log[inhibitor] vs. normalized response).

NanoLuc [3] = target: T1, NanoLuc; assay: Suicide inhibition: displacement of inhibitor by furimazine upon dilution (FIG. 7); details: 10 μM Nluc + 10 μM inhibitor 30 minutes at RT, diluted to 10 pM, furimazine 10 uM
Procedure: Following dilution, 50 ul of the dilution was combined with 50 ul of NanoGlo® assay buffer.
Following dilution, 50 ul of the dilution was combined with 50 ul of NanoGlo® assay buffer. Final furimazine concentration was 10 uM.

[4] = 0.4 ng/ml NANOLUC in CO2 independent media+10% FBS, final furimazine 10 μM, no pre-incubation noted, read-out: IC50

Molecule: CCN(C(=O)Cn1c(C(=O)N[C@H]2CC[C@H](C(=O)NCCCCCCCC(=O)NCCOCCOCCC(=O)ON3C(=O)CCC3=O)CC2)cc2sccc21)c1cccc(C)c1 [JRW-0544, 2,5-dioxopyrrolidin-1-yl 1-(trans-4-(4-(2-(ethyl(m-tolyl)amino)-2-oxoethyl)-4H-thieno[3,2-b]pyrrole-5-carboxamido)cyclohexyl)-1,10-dioxo-14,17-dioxa-2,11-diazaicosan-20-oate]
- Nluc inhibition over time (kinetic light output) (NanoLuc [1]): steady state binding
- IC50 (NanoLuc [2]): 13 nM

Molecule: CCN(C(=O)Cn1c(C(=O)N[C@H]2CC[C@H](C(=O)OC)CC2)cc2sccc21)c1cccc(CCCBr)c1 [JRW-0548, methyl trans-4-(4-(2-((3-(3-bromopropyl)phenyl)(ethyl)amino)-2-oxoethyl)-4H-thieno[3,2-b]pyrrole-5-carboxamido)cyclohexane-1-carboxylate]
- Nluc inhibition over time (kinetic light output) (NanoLuc [1]): steady state inhibition
- IC50 (NanoLuc [2]): 99 nM

Molecule: CCc1cccc(N(CC)C(=O)Cn2c(C(=O)N[C@H]3CC[C@H](C(=O)NCCCCCC(=O)OC)CC3)cc3ccccc32)c1 [JRW-0598, methyl 6-(trans-4-(1-(2-(ethyl(3-ethylphenyl)amino)-2-oxoethyl)-1H-indole-2-carboxamido)cyclohexane-1-carboxamido)hexanoate]
- displacement of inhibitor by furimazine upon dilution (NanoLuc [3]): slower
- IC50 (NanoLuc [2]): 0.4 nM

Molecule: CCc1cccc(N(CC)C(=O)Cn2c(C(=O)N[C@H]3CC[C@H](C(=O)NCCCCCCCC(=O)ON4C(=O)CCC4=O)CC3)cc3ccccc32)c1 [JRW-0600, 2,5-dioxopyrrolidin-1-yl 8-(trans-4-(1-(2-(ethyl(3-ethylphenyl)amino)-2-oxoethyl)-1H-indole-2-carboxamido)cyclohexane-1-carboxamido)octanoate]
- displacement of inhibitor by furimazine upon dilution (NanoLuc [3]): not displaced
- reversibility of Nluc inhibition (NanoLuc [3]): irreversible inhibition; also recorded: irreversibly inhibit

Molecule: CCc1cccc(N(CC)C(=O)Cn2c(C(=O)N[C@H]3CC[C@H](C(=O)NCCCCCC(=O)ON4C(=O)CCC4=O)CC3)cc3ccccc32)c1 [JRW-0604, 2,5-dioxopyrrolidin-1-yl 6-(trans-4-(1-(2-(ethyl(3-ethylphenyl)amino)-2-oxoethyl)-1H-indole-2-carboxamido)cyclohexane-1-carboxamido)hexanoate]
- displacement of inhibitor by furimazine upon dilution (NanoLuc [3]): slower
- reversibility of Nluc inhibition (NanoLuc [3]): did not show irreversible inhibition
- IC50 (NanoLuc [2]): 2.7 nM

Molecule: CCc1cccc(N(CC)C(=O)Cn2c(C(=O)N[C@H]3CC[C@H](C(=O)NCCCCCC(=O)Oc4ccccc4)CC3)cc3ccccc32)c1 [JRW-0606, phenyl 6-(trans-4-(1-(2-(ethyl(3-ethylphenyl)amino)-2-oxoethyl)-1H-indole-2-carboxamido)cyclohexane-1-carboxamido)hexanoate]
- displacement of inhibitor by furimazine upon dilution (NanoLuc [3]): slower
- IC50 (NanoLuc [2]): 4.1 nM

Molecule: CCc1cccc(N(CC)C(=O)Cn2c(C(=O)N[C@H]3CC[C@H](C(=O)NCCCCCCNC(=O)c4ccc5c(c4)C(=O)OC54c5ccc(OC(C)=O)cc5Oc5cc(OC(C)=O)ccc54)CC3)cc3ccccc32)c1 [JRW-0650, 5-((6-(trans-4-(1-(2-(ethyl(3-ethylphenyl)amino)-2-oxoethyl)-1H-indole-2-carboxamido)cyclohexane-1-carboxamido)hexyl)carbamoyl)-3-oxo-3H-spiro[isobenzofuran-1,9′-xanthene]-3′,6′-diyl diacetate]
- displacement of inhibitor by furimazine upon dilution (NanoLuc [3]): slower

Molecule: CCc1cccc(N(CC)C(=O)Cn2c(C(=O)N[C@H]3CC[C@H](C(=O)NCCCCCCCCNC(=O)CCc4ccc5n4[B-](F)(F)[N+]4=C(C)C=C(C)C4=C5)CC3)cc3ccccc32)c1 [JRW-0888, N-(trans-4-((8-(3-(5,5-difluoro-7,9-dimethyl-5H-5λ4,6λ4-dipyrrolo[1,2-c:2′,1′-f][1,3,2]diazaborinin-3-yl)propanamido)octyl)carbamoyl)cyclohexyl)-1-(2-(ethyl(3-ethylphenyl)amino)-2-oxoethyl)-1H-indole-2-carboxamide]
- IC50 (NanoLuc [2]): 26 nM

Molecule: CCN(C(=O)Cn1c(C(=O)NC2CCC(C(=O)NCCCCCCCCNC(=O)CCC3=[N+]4C(=Cc5c(C)cc(C)n5[B-]4(F)F)C=C3)CC2)cc2sccc21)c1cccc(C)c1 (stereo not drawn) [JRW-0889, N-(trans-4-((8-(3-(5,5-difluoro-7,9-dimethyl-5H-5λ4,6λ4-dipyrrolo[1,2-c:2′,1′-f][1,3,2]diazaborinin-3-yl)propanamido)octyl)carbamoyl)cyclohexyl)-4-(2-(ethyl(m-tolyl)amino)-2-oxoethyl)-4H-thieno[3,2-b]pyrrole-5-carboxamide]
- IC50 (NanoLuc [2]; [4]): 280 nM

Molecule: CCc1cccc(N(CC)C(=O)Cn2c(C(=O)N[C@H]3CC[C@H](C(=O)NCCCCCCNC(=O)CCOCCOCCNC(=O)c4ccc5c(c4)C4(OC5=O)c5ccc(N(C)C)cc5Oc5cc(N(C)C)ccc54)CC3)cc3ccccc32)c1 [JRW-0915, N-(trans-4-((1-(3′,6′-bis(dimethylamino)-3-oxo-3H-spiro[isobenzofuran-1,9′-xanthen]-6-yl)-1,11-dioxo-5,8-dioxa-2,12-diazaoctadecan-18-yl)carbamoyl)cyclohexyl)-1-(2-(ethyl(3-ethylphenyl)amino)-2-oxoethyl)-1H-indole-2-carboxamide]
- IC50 (NanoLuc [2]): 5.2 nM

Molecule: CCc1cccc(N(CC)C(=O)Cn2c(C(=O)N[C@H]3CC[C@H](C(=O)NCCCCCCCCNC(=O)CCOCCOCCNC(=O)c4ccc5c(c4)C4(OC5=O)c5ccc(N(C)C)cc5Oc5cc(N(C)C)ccc54)CC3)cc3ccccc32)c1 [JRW-0920, N-(trans-4-((1-(3′,6′-bis(dimethylamino)-3-oxo-3H-spiro[isobenzofuran-1,9′-xanthen]-6-yl)-1,11-dioxo-5,8-dioxa-2,12-diazaicosan-20-yl)carbamoyl)cyclohexyl)-1-(2-(ethyl(3-ethylphenyl)amino)-2-oxoethyl)-1H-indole-2-carboxamide]
- IC50 (NanoLuc [2]): 1.7 nM

Molecule: CCc1cccc(N(CC)C(=O)Cn2c(C(=O)N[C@H]3CC[C@H](C(=O)NCCCCCCCCNC(=O)CCC(=O)NCCC4=C5C=CC=[N+]5[B-](F)(F)n5c(C)cc(C)c54)CC3)cc3ccccc32)c1 [JRW-1081, N1-(2-(5,5-difluoro-1,3-dimethyl-5H-5λ4,6λ4-dipyrrolo[1,2-c:2′,1′-f][1,3,2]diazaborinin-10-yl)ethyl)-N4-(8-(trans-4-(1-(2-(ethyl(3-ethylphenyl)amino)-2-oxoethyl)-1H-indole-2-carboxamido)cyclohexane-1-carboxamido)octyl)succinamide]
- IC50 (NanoLuc [2]): 6 nM

Molecule: N1-(2-(5,5-difluoro-1,3-dimethyl-5H-5λ4,6λ4-dipyrrolo[1,2-c:2′,1′-f][1,3,2]diazaborinin-10-yl)ethyl)-N4-(1-(trans-4-(1-(2-(ethyl(3-ethylphenyl)amino)-2-oxoethyl)-1H-indole-2-carboxamido)cyclohexyl)-1,10-dioxo-13,16-dioxa-2,9-diazaoctadecan-18-yl)succinamide [JRW-1082]
- IC50 (NanoLuc [2]; [4]): 3.3 nM

Molecule: N1-(2-(5,5-difluoro-1,3-dimethyl-5H-5λ4,6λ4-dipyrrolo[1,2-c:2′,1′-f][1,3,2]diazaborinin-10-yl)ethyl)-N4-(1-(trans-4-(1-(2-(ethyl(3-ethylphenyl)amino)-2-oxoethyl)-1H-indole-2-carboxamido)cyclohexyl)-1,12-dioxo-15,18-dioxa-2,11-diazaicosan-20-yl)succinamide [JRW-1083]
- IC50 (NanoLuc [2]; [4]): 1.8 nM

Molecule: N-(trans-4-((1-(3′,6′-dihydroxy-3-oxo-3H-spiro[isobenzofuran-1,9′-xanthen]-5,6-yl)-1,11-dioxo-5,8-dioxa-2,12-diazaicosan-20-yl)carbamoyl)cyclohexyl)-1-(2-(ethyl(3-ethylphenyl)amino)-2-oxoethyl)-1H-indole-2-carboxamide [JRW-0921]
- IC50 (NanoLuc [2]; [4]): 1.1 nM

Molecule: N-(trans-4-((6-(3′,6′-diamino-3-oxo-3H-spiro[isobenzofuran-1,9′-xanthene]-5,6-carboxamido)hexyl)carbamoyl)cyclohexyl)-1-(2-(ethyl(3-ethylphenyl)amino)-2-oxoethyl)-1H-indole-2-carboxamide [JRW-0859]
- IC50 (NanoLuc [2]; [4]): 2 nM

Molecule: N-(trans-4-((8-(3′,6′-diamino-3-oxo-3H-spiro[isobenzofuran-1,9′-xanthene]-5,6-carboxamido)octyl)carbamoyl)cyclohexyl)-1-(2-(ethyl(3-ethylphenyl)amino)-2-oxoethyl)-1H-indole-2-carboxamide [JRW-0886]
- IC50 (NanoLuc [2]; [4]): 3.7 nM

Molecule: N-(trans-4-((8-(4′,5′-dichloro-3′,6′-dihydroxy-2′,7′-dimethoxy-3-oxo-3H-spiro[isobenzofuran-1,9′-xanthene]-5,6-carboxamido)octyl)carbamoyl)cyclohexyl)-1-(2-(ethyl(3-ethylphenyl)amino)-2-oxoethyl)-1H-indole-2-carboxamide [JRW-0964]
- IC50 (NanoLuc [2]; [4]): 12 nM

Molecule: N-(trans-4-((8-(6-((Z)-2-((E)-3-(1,1-dimethyl-1,4,5,6-tetrahydro-3λ4-pyrrolo[3,2,1-ij]quinolin-2-yl)allylidene)-1-methyl-1,2,5,6-tetrahydro-4H-pyrrolo[3,2,1-ij]quinolin-1-yl)hexanamido)octyl)carbamoyl)cyclohexyl)-1-(2-(ethyl(3-ethylphenyl)amino)-2-oxoethyl)-1H-indole-2-carboxamide [JRW-0958]
- IC50 (NanoLuc [2]; [4]): 16 nM
